Experimental data: patent publication US12084521B2, “TLR9 inhibitors to suppress inflammatory response to pathogens” (University Of Maryland, Baltimore, priority 2018, dated 2024)
Entries after “also recorded” stand apart in the source; their conditions may differ. Blank lines part the entries; values can stand above or below the substance they belong to. No end group written: not given here. Cy3 = Cy3 fluorescent dye label

Tests used:
[1] = test system: Cer not fused to a TIR domain; experiment: FLIM/FRET control construct in HeLa cells; format: binding; details: peptide 40 μM
Experimental: (§1) Three million HeLa cells were transfected with 10 μg of MyD88-Cer, TIRAP-Cer, TRAM-Cer, TLR2-Cer, TLR4 TIR-Cer, or TLR9 TIR-Cer expression vectors using a Lipofectamine™ 3000 kit from Invitrogen™ per manufacturer recommendations. Twenty four hours later, the transfected cells were trypsinized and reseeded into a 50-well gasket (Grace Bio-Labs™) mounted on a microscope slide at the density 8000 cells/well. The next day, cells were treated with Cy3-9R34-ΔN or Cy3-9R11 for 1 hour and fixed on the slides with a 4% paraformaldehyde solution.
(§2) Fluorescence lifetime images were acquired using the Alba V FLIM™ system (ISS™ Inc.). The excitation was from the laser diode 443 nm coupled with scanning module (ISS™) through multiband dichroic filter 443/532/635 nm (Semrock™) to Olympus™ IX71S microscope with objective 20×0.45 NA (UPlan™ Olympus™). Emission was observed through bandpass filter […] (Chroma Technology™) and detected by a photomultiplier H7422-40 (Hamamatsu™). Measurements were performed using frequency domain (FD) and time domain (TD) modalities of the FLIM system. FD FLIM data were acquired using ISS™ A320 FastFLIM™ electronics with n harmonics of 20 MHz laser repetition frequency (n=1, 2, 3, 4, 5, 6). FastFLIM™ was calibrated using fluorescein in buffer pH 8.0 as a standard with a single lifetime of 4.0 ns. TD FLIM images were acquired using time-correlated single photon counting TCSPC™ Model SPC-830 (Becker & Hick™).
(§3) Images (256×256 pixels) were acquired with resolution varied in the range ˜0.4-0.7 μm/pixel, using scan speed 1 ms/pixel. To avoid pixel intensity saturation in bright cells and to improve the signal from dim cells, two to five overlapping scans were used for acquisition of FLIM images. Image sizes varied from 100×100 to 180×180 μm to accommodate multiple cells. FLIM data were analyzed with VistaVision™ Suite software (Vista™ v.212 from ISST). Fluorescence lifetime was determined using single- and bi-exponential intensity decay models. Average lifetime images were generated based on pixel-by-pixel analysis using the combined signal of two neighboring pixels in all directions (bin 2=25 pixels). The binning was used to improve the signal for analysis. The average lifetimes were calculated from fitted parameters, decay times τi and amplitudes αi, τa=Σαiτi. The bi-exponential fitting procedure was performed with one lifetime component fixed at 3.1 nsec, which was found common for most images. To calculate the effective FRET efficiency (E), average lifetimes of the donor only images (τD) and donor-acceptor images (τDA) were used, E=1−τDA/τD.
(§4) TLR9, MyD88, and TIRAP were selected as potential primary binding partners for Cy3-9R34-ΔN and Cy3-9R11. Cer-fused TLR2 and TLR4 TIR domains, and Cer not fused to a TIR, were used as controls. […] Therefore, the TIRAP-Cer with Cy3-2R9 was used as a positive binding control. Binding of Cy3-labeled CPDPs to Cerulean- (Cer-) labeled TIR domains was tested as follows. Fluorescence Lifetime IMages (FLIM) were made of HeLa cells expressing Cer not fused with a TIR domain (upper row) or fused with TLR9 TIR or TIRAP TIR (middle and bottom rows) and treated with a Cy3-labeled decoy peptide for 1 hour.

[2] = molecular target: T1, MyD88 TIR (Homo sapiens, UniProt Q99836); experiment: FLIM/FRET binding of Cy3-labeled peptides to Cer-fused TIR in HeLa cells
T1 construct: expressed in transfected cells; host or cells: HeLa
T1 sequence (Q99836 159-293 limits assumed): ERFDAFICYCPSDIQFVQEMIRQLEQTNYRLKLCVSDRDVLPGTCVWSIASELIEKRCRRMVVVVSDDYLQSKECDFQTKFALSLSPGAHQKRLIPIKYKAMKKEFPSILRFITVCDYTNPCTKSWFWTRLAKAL
Experimental: as §1, §2, §3
(§5) To identify potential binding partners of inhibitory peptides a FRET approach coupled with Fluorescence Lifetime Imaging Microscopy (FLIM) was used. HeLa cells were transiently transfected with an expression vector that encodes a TIR domain fused with Cerulean fluorescent protein (Cer). Cells were treated with various concentrations of a Cy3-labeled inhibitory peptide 48 hours after transfection. Cy3 is a suitable FRET acceptor for Cer fluorescence. A direct molecular interaction of a Cy3-labeled peptide with Cer-fused TIR domain should quench Cer fluorescence, leading to a decreased fluorescence lifetime.
as §4
(§6) A progressive shift of average fluorescence lifetime towards lower values observed with increasing peptide concentrations indicates the binding between donor and acceptor moieties. […]

[3] = molecular target: T2, TIRAP TIR (Homo sapiens, UniProt P58753); experiment: as above; details: HeLa cells, Cy3-peptide 2.5-40 μM, 1 hour
T2 construct: fused with TLR9 TIR or TIRAP TIR; expressed in transfected cells; host or cells: HeLa
T2 sequence (P58753 84-213 limits assumed): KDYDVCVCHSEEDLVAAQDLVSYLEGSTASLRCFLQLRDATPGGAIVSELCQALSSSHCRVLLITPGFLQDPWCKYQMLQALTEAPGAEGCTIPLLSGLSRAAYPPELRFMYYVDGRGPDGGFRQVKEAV
Experimental: as §1, §2, §3, §5, §4, §6

[4] = molecular target: T3, TLR9 TIR (Homo sapiens, UniProt Q9NR96); experiment: as above; details: HeLa cells, Cy3-peptide 2.5-40 μM, 1 hour, dose-dependent
T3 construct: expressed in transfected cells; host or cells: HeLa
T3 sequence (Q9NR96 868-1013 limits assumed): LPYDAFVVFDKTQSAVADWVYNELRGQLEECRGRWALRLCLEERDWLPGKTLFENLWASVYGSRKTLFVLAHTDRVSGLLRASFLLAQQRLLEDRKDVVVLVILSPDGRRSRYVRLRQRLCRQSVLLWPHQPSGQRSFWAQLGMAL
Experimental: as §1, §2, §3, §5, §4, §6

[5] = test system: myDDosome; details: BMDM pretreated with CPDP; MyD88 IP, IRAK4 blot
Experimental: Four million BMDMs per well were plated in 6-well plates and treated with CPDP for 30 minutes prior to stimulation with ODN 1668 for 90 minutes. Cells were lysed in 600 p L of buffer containing 20 mM HEPES (pH 7.4), 150 mM NaCl, 10 mM NaF, 2 mM Na3VO4, 1 mM EDTA, 1 mM EGTA, 0.5% Triton X-100, 0.1 mM DTT, and protease inhibitor cocktail (Roche™). Cell extracts were incubated overnight with 1 μg of anti-mouse MyD88 antibody (AF3109) (R&D Systems™, followed by a 4-hour incubation with 20 μL protein G Sepharose beads (ThermoFisherm Scientific). The beads were then washed 3 times with 500 μL of lysis buffer and boiled in 60 μL of Laemmli sample buffer (Bio-Rad™). Cell extracts were electrophoresed on 10% acrylamide gel by SDS-PAGE and transferred to PVDF membrane (Bio-Rad™). Rabbit anti-MyD88 IgG was purchased from Cell Signaling™. Mouse anti-IRAK4 IgG was obtained from Abcam™. Alkaline phosphatase-conjugated secondary antibodies against mouse and rabbit IgG were purchased from Cell Signaling™. The stabilized substrate for alkaline phosphatase was from Promega™.
TLR stimulation causes formation of myDDosome, a signaling complex composed through interactions of IRAK and MyD88 death domains. To test if peptides inhibit myDDosome formation, MyD88 was immunoprecipitated from lysates of ODN-stimulated BMDM and the precipitates analyzed for IRAK4 presence. BMDM were lysed and lysates immunoprecipitated with anti-MyD88 Ab and immune complexes assessed with anti-IRAK4 Ab 3 hours after cell treatment with ODN 1668.

[6] = test system: TLR9 signaling; experiment: ODN 1668-induced cytokine mRNA expression in BMDM (quantitative real time PCR); format: cell-based, mouse; details: BMDM; for inhibition of TLR9 signaling (ODN 1668-induced cytokine mRNA, overall): peptide 10, 20 or 40 μM, ODN 1668 1 μM; for TNFα mRNA expression / IL-12-p40 mRNA expression / IL-10 mRNA expression: peptide 10, 20 or 40 μM 30 min before ODN 1668 (1 μM), normalized to HPRT; for TNFα mRNA expression: 1 hour after stimulation; for IL-12-p40 mRNA expression / IL-10 mRNA expression: 1 hour
Experimental: The cDNA obtained was amplified with gene-specific primers for mouse HPRT, TNFα, IL-10, IL-12-p40, or IL-6 and Fast SYBR Green™ master mix (Applied Biosystemsm) as previously described.
Mouse BMDMs were incubated in the presence of a 10, 20 or 40 μM decoy peptide for 30 minutes prior to stimulation with ODN 1668 (1 μM). […] Data represent the means±SEM of at least three independent experiments. The statistical significance of changes in cytokine mRNA was determined by a one-way ANOVA test; *p<0.001. Peptides 9R3 and 9R34 have overlapping sequences (see Table 1).
To investigate inhibition of TLR9 signaling by 9R34 analogues, the following work was performed. Mouse BMDMs were incubated in the presence of a 10, 20 or 40 μM decoy peptide for 30 minutes prior to stimulation with ODN 1668 (1 μM). Cytokine mRNA expression was measured 1 hour after ODN 1668 challenge and normalized to the expression of HPRT. See also Table 1. Data represent means±SEM of at least three independent experiments.

[7] = test system: TLR9 signaling; experiment: Plasma cytokines after i.p. ODN 1668 in mice; format: in vivo, C57BL/6J mice; details: peptide 200 nmol/mouse i.p.; ODN 1668 7.86 nmol/mouse
Experimental: Systemic cytokine levels were measured in plasma samples obtained 1, 3, and 5 hours after intraperitoneal (i.p.) administration of 7.86 nmol (50 μg) of ODN 1668 or 67 nmol of Pam3C per mouse, using ELISA kits from Biolegend™ Inc. CPDP were dissolved in PBS and administered i.p. at the dose of 200 nmol per mouse 1 hour before administration of a TLR agonist. For survival experiments, mice were sensitized to TLR9 agonists by i.p. injection of 20 mg of D-Gal 30 minutes before administration of peptides or PBS. ODN 1668 was used at the doses of 3.93 or 7.86 nmol/mouse (25 or 50 μg/mouse) 1.5 hours after D-Gal. Animal survival was monitored for 50 hours. All agents were administered i.p. in 500 μL volume of PBS. Animals had free access to food and water during the observation period. All animal experiments were conducted in accordance with the national guidelines for the care and use of laboratory animals under a protocol that was approved by the UMB IACUC.
To test the in vivo efficacy and specificity of 9R34-ΔN, C57BL/6J mice were mock-treated or treated i.p. with a single dose of inhibitory or control peptide (200 nmol/mouse) and challenged with TLR9 agonist ODN 1668 (7.86 nmol/mouse) or TLR2/1 agonist Pam3C (67 nmol/mouse) 1 hour later. Plasma concentrations of TNFα and IL-12-p40 were measured 1, 3, and 5 hours after the challenge. Both TLR agonists increased concentrations of TNFα and IL-12-p40 in 1 hour samples from below the limit of detection to about 1.2 and about 6 ng/mL in the case of ODN 1668, and to 0.12 ng/mL and 1 ng/mL after treatment with Pam3C.
Plasma TNFα and IL-12-p40 levels following intraperitioneal administration of ODN 1668 to C57Bl/6J mice in peptide-pretreated and control mice are shown in FIG. 14A and FIG. 14B. Data shown in these figures represent the means±SEM obtained in at least three independent experiments. The statistical significance of changes in cytokine concentrations was determined by a two-way ANOVA test; *p<0.001.

[8] = test system: TLR9 signaling; experiment: ODN 1668-induced cytokine secretion in BMDM supernatants (ELISA); format: cell-based, mouse; details: peptide 40 μM; 5 hour supernatants; ODN 1668 1 μM
Experimental: Mouse TNFα and IL-12-p40 concentrations were measured in supernatants using ELISA kits from Biolegend™, Inc.
BMDMs were incubated in the presence of a decoy peptide for 30 minutes prior to stimulation with ODN 1668 (1 μM). The statistical significance of changes in cytokine levels was determined by the one-way ANOVA test; *p<0.01.

- quenching of MyD88-Cer fluorescence lifetime [2]: detectable, but less effective
- FRET efficiency, TLR9 TIR-Cer [4]: 3-27%
Substance: Cy3-9R11: Cy3-labeled 9R11 peptide, Cy3 label placed at the peptide N-terminus (Cy3-RQIKIWFQNRRMKWKKRSFWAQLGMALTRD)
- fluorescence lifetime of Cer not fused to a TIR domain (unspecific quenching) [1]: Unspecific Cer quenching
- quenching of TIRAP-Cer fluorescence [3]: induced FRET from TIRAP-Cer, but only when used at higher concentrations of 10 or 40 μM

Substance: DKTQSAVADWVYNE (Synthetic peptide 9R2)
- ODN 1668-induced myDDosome formation [5]: not
- inhibition of TLR9 signaling (ODN 1668-induced cytokine mRNA, overall) [6]: did not inhibit TLR9
- ODN 1668-induced plasma cytokine levels (TNFα, IL-12-p40) [7]: did not significantly reduce

Substance: GRWALRACAEERD (Synthetic peptide 9R34-delta-L2) [Peptide 9R34-ΔL2]
- inhibition of TLR9 signaling (ODN 1668-induced cytokine mRNA, overall) [6]: inhibited TLR9 signaling less potently

Substance: GRWALRACLEERD (Synthetic peptide 9R34-delta-L1) [Peptide 9R34-ΔL1]
- inhibition of TLR9 signaling (ODN 1668-induced cytokine mRNA, overall) [6]: inhibited TLR9 signaling less potently

Substance: GRWALRLCLE (Synthetic peptide 9R34-delta-C) [Peptide 9R34-ΔC]
- inhibition of TLR9 signaling (ODN 1668-induced cytokine mRNA, overall) [6]: as potent as the parent peptide

Substance: GRWALRLSLEERD (Synthetic peptide 9R34-C/S)
- inhibition of TLR9 signaling (ODN 1668-induced cytokine mRNA, overall) [6]: as potent as the parent peptide

Substance: HTDRVSGLLRASFL (Synthetic peptide 9R6)
- TNFα mRNA expression [6]: partial activity
- IL-12-p40 mRNA expression [6]: partial activity
- inhibition of TLR9 signaling (ODN 1668-induced cytokine mRNA, overall) [6]: some inhibitory activity; also recorded: weakly inhibited

Substance: LEERDWLPGKTLFE (Synthetic peptide 9R4)
- inhibition of TLR9 signaling (ODN 1668-induced cytokine mRNA, overall) [6]: did not inhibit

Substance: RGQLEECRGRWALR (also: antennapedia vector attached) [Peptide 9R3, tested as CPDP with antennapedia vector]
- TNFα mRNA expression [6]: significantly suppressed
- IL-10 mRNA expression [6]: significantly suppressed
- IL-12-p40 mRNA expression [6]: significantly suppressed
- inhibition of TLR9 signaling (ODN 1668-induced cytokine mRNA, overall) [6]: inhibit TLR9 signaling

Substance: RYVRLRQRLCRQS (Synthetic peptide 9R9)
- TNFα mRNA expression [6]: significantly suppressed
- IL-10 mRNA expression [6]: significantly suppressed
- IL-12-p40 mRNA expression [6]: significantly suppressed
- inhibition of TLR9 signaling (ODN 1668-induced cytokine mRNA, overall) [6]: inhibit TLR9 signaling; also recorded: inhibited signaling weaker than 9R34 or 9R11
- production/secretion of TNFα [8]: did not inhibit significantly
- secretion of IL-12-p40 [8]: reduced secretion

Substance: SPDGRRSRYVR (Synthetic peptide 9R8)
- inhibition of TLR9 signaling (ODN 1668-induced cytokine mRNA, overall) [6]: some inhibitory activity
